Laboratory results as given in patent US11566007B2, “Ras inhibitors” (Revolution Medicines, Inc., priority 2019, dated 2023).

Assays:
NCI-H358 (K-Ras G12C) = experiment: CellTiter-Glo cell viability assay, NCI-H358; format: cell-based, human; conditions: Homo sapiens, NCI-H358, 120 h, NCI-H358, 5-day treatment; class symbols; read-out: Additional H358 Cell Viability assay data (K-Ras G12C, IC50)
Procedure, shortened: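 Viability measured by CellTiter-Glo luminescence on day 5 following direct addition of compound to plated cells. Values expressed as percent of mean DMSO signal; curves fitted with a four-parameter logistic model.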

K-Ras G12C = K-Ras G12C (Homo sapiens (Human), UniProt P01116+P62937, G12C); experiment: Ras-Raf (BRAF RBD) disruption / FRET / MOA assay, KRAS G12C; format: biochemical; conditions: KRAS G12C; Ras-Raf disruption/FRET/MOA assay; read-out: IC50* KRAS G12C FRET data
Procedure, shortened: (§1)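 Ternary complex formation (Ras–compound–cyclophilin A) displacing BRAF RBD, monitored by TR-FRET. Three hours at 25° C with compound (top 30 μM final), then 1.5 h with the labelled antibodies. Lower ratio than DMSO indicates disruption; IC50 reported.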

KRAS G12S = KRAS G12S (Homo sapiens (Human), UniProt P01116+P62937, G12S); experiment: Ras-Raf (BRAF RBD) disruption / FRET / MOA assay, KRAS G12S; format: biochemical; conditions: Ras-Raf disruption/FRET/MOA assay; class symbols; read-out: KRAS G12S FRET data IC50
Procedure, shortened: as §1

KRAS G12D = KRAS G12D (Homo sapiens (Human), UniProt P01116+P62937, G12D); experiment: Ras-Raf (BRAF RBD) disruption / FRET / MOA assay, KRAS G12D; format: biochemical; conditions: Ras-Raf disruption/FRET/MOA assay; class symbols; read-out: KRAS G12D FRET data IC50
Procedure, shortened: as §1

KRAS WT = KRAS WT (Homo sapiens (Human), UniProt P01116+P62937); experiment: Ras-Raf (BRAF RBD) disruption / FRET / MOA assay, KRAS WT; format: biochemical; conditions: read-out: IC50* KRAS WT FRET data
Procedure, shortened: as §1

NRAS Q61R = NRAS Q61R (Homo sapiens (Human), UniProt P01111+P62937, Q61R); experiment: Ras-Raf (BRAF RBD) disruption / FRET / MOA assay, NRAS Q61R; format: biochemical; conditions: NRAS Q61R; Ras-Raf disruption/FRET/MOA assay; read-out: IC50* NRAS Q61R FRET data
Procedure, shortened: (§2)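 Compounds were tested as a 10-point 3-fold dilution series from 30 μM final for their ability to drive ternary complex formation between nucleotide-loaded Ras and cyclophilin A, displacing the BRAF RBD. After 3 h at 25° C., anti-His Eu-W1024 (10 nM) and anti-GST allophycocyanin (50 nM) were added for 1.5 h. A TR-FRET ratio decrease versus DMSO gave IC50.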

NRAS Q61K = NRAS Q61K (Homo sapiens (Human), UniProt P01111+P62937, Q61K); experiment: Ras-Raf (BRAF RBD) disruption / FRET / MOA assay, NRAS Q61K; format: biochemical; conditions: NRAS Q61K; Ras-Raf disruption/FRET/MOA assay; read-out: IC50* NRAS Q61K FRET data
Procedure, shortened: as §2

Sequence of KRAS WT (P01116-2 other isoform, or with tags, fused parts or gaps): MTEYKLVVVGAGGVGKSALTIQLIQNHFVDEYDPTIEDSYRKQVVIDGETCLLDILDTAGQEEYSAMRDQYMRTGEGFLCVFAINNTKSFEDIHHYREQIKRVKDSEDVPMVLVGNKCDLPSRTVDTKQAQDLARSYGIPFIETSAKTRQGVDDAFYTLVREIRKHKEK
Sequence of KRAS WT (P62937 whole entry): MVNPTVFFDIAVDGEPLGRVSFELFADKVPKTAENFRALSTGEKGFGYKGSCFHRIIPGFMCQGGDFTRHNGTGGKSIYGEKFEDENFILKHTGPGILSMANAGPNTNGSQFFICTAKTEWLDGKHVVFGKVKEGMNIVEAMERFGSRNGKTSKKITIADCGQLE
Sequence of KRAS G12S (P01116-2 other isoform, or with tags, fused parts or gaps G12S): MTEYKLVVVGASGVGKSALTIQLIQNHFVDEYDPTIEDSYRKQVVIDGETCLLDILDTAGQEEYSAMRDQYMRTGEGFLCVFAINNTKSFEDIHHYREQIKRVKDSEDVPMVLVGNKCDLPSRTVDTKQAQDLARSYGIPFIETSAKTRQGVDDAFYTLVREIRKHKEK
Sequence of KRAS G12S (P62937 whole entry): as the sequence (P62937 whole entry) above
Sequence of KRAS G12D (P01116-2 other isoform, or with tags, fused parts or gaps G12D): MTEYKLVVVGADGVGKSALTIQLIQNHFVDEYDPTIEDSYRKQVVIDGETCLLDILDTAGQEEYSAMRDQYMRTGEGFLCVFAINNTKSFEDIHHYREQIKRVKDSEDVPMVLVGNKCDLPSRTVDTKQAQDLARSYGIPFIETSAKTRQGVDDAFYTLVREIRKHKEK
Sequence of KRAS G12D (P62937 whole entry): as the sequence (P62937 whole entry) above
Sequence of NRAS Q61R (P01111 whole entry Q61R): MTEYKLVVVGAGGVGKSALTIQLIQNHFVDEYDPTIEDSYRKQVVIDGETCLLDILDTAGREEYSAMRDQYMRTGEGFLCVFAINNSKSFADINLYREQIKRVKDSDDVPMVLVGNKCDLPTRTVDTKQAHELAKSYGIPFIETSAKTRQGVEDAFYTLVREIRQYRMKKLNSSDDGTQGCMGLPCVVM
Sequence of NRAS Q61R (P62937 whole entry): as the sequence (P62937 whole entry) above
Sequence of K-Ras G12C (P01116-2 other isoform, or with tags, fused parts or gaps G12C): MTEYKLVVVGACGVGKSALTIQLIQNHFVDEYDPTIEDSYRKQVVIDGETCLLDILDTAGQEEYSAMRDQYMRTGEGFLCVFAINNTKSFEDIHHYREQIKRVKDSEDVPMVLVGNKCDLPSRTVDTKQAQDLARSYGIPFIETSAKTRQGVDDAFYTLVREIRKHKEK
Sequence of K-Ras G12C (P62937 whole entry): as the sequence (P62937 whole entry) above
Sequence of NRAS Q61K (P01111 whole entry Q61K): as the sequence (P01111 whole entry Q61R) above, with R61K counted along it
Sequence of NRAS Q61K (P62937 whole entry): as the sequence (P62937 whole entry) above

| Compound | IC50 (NCI-H358 (K-Ras G12C)) [nM] | IC50 (K-Ras G12C) [nM] | IC50 (KRAS G12S) [nM] | IC50 (KRAS G12D) [µM] | IC50 (KRAS WT) [nM] | IC50 (NRAS Q61R) [nM] | IC50 (NRAS Q61K) [nM] |
| --- | --- | --- | --- | --- | --- | --- | --- |
| C=CC(=O)NC[C@H]1CCN1C(=O)N(C)[C@H](C(=O)N[C@H]1Cc2nc(cs2)-c2ccc3c(c2)c(c(-c2cccnc2[C@H](C)OC)n3CC)CC(C)(C)COC(=O)[C@@H]2CCCN(N2)C1=O)C(C)C (atropisomer, axis not shown) [Example A356] | < 10 | 100 to 1000 | 1000 to 10000 | 1 to 10 | 100 to 1000 | 100 to 1000 | 100 to 1000 |
| C=C(C)C(=O)N1CC(N(C)C(=O)N(C)[C@H](C(=O)N[C@H]2Cc3nc(cs3)-c3ccc4c(c3)c(c(-c3cccnc3[C@H](C)OC)n4CC)CC(C)(C)COC(=O)[C@@H]3CCCN(N3)C2=O)C(C)C)C1 (atropisomer, axis not shown) [Example A360] | 10 to 100 | 100 to 1000 | 100 to 1000 | 1 to 10 | 100 to 1000 | 100 to 1000 | 100 to 1000 |
| CCn1c(-c2cccnc2[C@H](C)OC)c2c3cc(ccc31)-c1csc(n1)C[C@H](NC(=O)[C@H](C(C)C)N(C)C(=O)N(C)C1CN(C(=O)/C=C/CN(C)C)C1)C(=O)N1CCC[C@H](N1)C(=O)OCC(C)(C)C2 (atropisomer, axis not shown) [Example A361] | 10 to 100 | 10 to 100 | 100 to 1000 | 1 to 10 | 100 to 1000 | 100 to 1000 | 100 to 1000 |
| CCn1c(-c2cccnc2[C@H](C)OC)c2c3cc(ccc31)-c1csc(n1)C[C@H](NC(=O)CN1CC[C@@]3(CCN(C(=O)C#CC(C)(C)N4CCC4)C3)C1)C(=O)N1CCC[C@H](N1)C(=O)OCC(C)(C)C2 (atropisomer, axis not shown) [Example A364] | 100 to 1000 | 100 to 1000 | 1000 to 10000 | > 10 | 1000 to 10000 | 1000 to 10000 | 1000 to 10000 |
| CCn1c(-c2cccnc2[C@H](C)OC)c2c3cc(ccc31)-c1csc(n1)C[C@H](NC(=O)CCO[C@@H]1CCN(C(=O)C#CC(C)(C)N3CCC3)C1)C(=O)N1CCC[C@H](N1)C(=O)OCC(C)(C)C2 (atropisomer, axis not shown) [Example A366] | 100 to 1000 | 10 to 100 | 1000 to 10000 | 1 to 10 | 1000 to 10000 | 1000 to 10000 | 1000 to 10000 |
| C=CC(=O)N1CC[C@H](C(=O)N(C)[C@H](C(=O)N[C@H]2Cc3cc(cc(C(F)F)c3)-c3ccc4c(c3)c(c(-c3cccnc3[C@H](C)OC)n4CC(F)(F)F)CC(C)(C)COC(=O)[C@@H]3CCCN(N3)C2=O)C(C)C)C1 (atropisomer, axis not shown) [Example A372] | 10 to 100 | 100 to 1000 | 1000 to 10000 | > 10 | 1000 to 10000 | 1000 to 10000 | 1000 to 10000 |
| CCn1c(-c2cccnc2[C@H](C)OC)c2c3cc(ccc31)N1CCO[C@@H](C[C@H](NC(=O)[C@@H](COC3CN(C(=O)C#CC(C)(C)N(C)C)C3)C(C)C)C(=O)N3CCC[C@H](N3)C(=O)OCC(C)(C)C2)C1 (atropisomer, axis not shown) [Example A377, (2R)-2-(((1-(4-(dimethylamino)-4-methylpent-2-ynoyl)azetidin-3-yl)oxy)methyl)-N-((2^2S,6^3S,4S)-1^1-ethyl-1^2-(2-((S)-1-methoxyethyl)pyridin-3-yl)-10,10-dimethyl-5,7-dioxo-6^1,6^2,6^3,6^4,6^5,6^6-hexahydro-1^1H-8-oxa-2(4,2)-morpholina-1(5,3)-indola-6(1,3)-pyridazinacycloundecaphane-4-yl)-3-methylbutanamide] | < 10 | < 10 | > 10000 | > 10 | > 10000 | > 10000 | > 10000 |
| CO[C@@H](C)c1ncccc1-c1c2c3cc(ccc3n1CC(F)(F)F)-c1csc(n1)C[C@H](NC(=O)CCOC1CN(C(=O)C#CC(C)(C)N(C)C)C1)C(=O)N1CCC[C@H](N1)C(=O)OCC(C)(C)C2 (atropisomer, axis not shown) [Example A380] | < 10 | < 10 | 1000 to 10000 | 1 to 10 | 1000 to 10000 | 1000 to 10000 | 1000 to 10000 |
